Source: ChEMBL document CHEMBL1201862, “PubChem BioAssay data set” (2004)
The source made the active and inactive calls.

How the values were obtained:
[1] = molecular target: T1, Methionyl-tRNA synthetase, putative (Trypanosoma brucei brucei, UniProt Q38C91); assay type: functional, Trypanosoma brucei brucei strain 927/4 GUTat10.1
T1 sequence (Q38C91 whole entry): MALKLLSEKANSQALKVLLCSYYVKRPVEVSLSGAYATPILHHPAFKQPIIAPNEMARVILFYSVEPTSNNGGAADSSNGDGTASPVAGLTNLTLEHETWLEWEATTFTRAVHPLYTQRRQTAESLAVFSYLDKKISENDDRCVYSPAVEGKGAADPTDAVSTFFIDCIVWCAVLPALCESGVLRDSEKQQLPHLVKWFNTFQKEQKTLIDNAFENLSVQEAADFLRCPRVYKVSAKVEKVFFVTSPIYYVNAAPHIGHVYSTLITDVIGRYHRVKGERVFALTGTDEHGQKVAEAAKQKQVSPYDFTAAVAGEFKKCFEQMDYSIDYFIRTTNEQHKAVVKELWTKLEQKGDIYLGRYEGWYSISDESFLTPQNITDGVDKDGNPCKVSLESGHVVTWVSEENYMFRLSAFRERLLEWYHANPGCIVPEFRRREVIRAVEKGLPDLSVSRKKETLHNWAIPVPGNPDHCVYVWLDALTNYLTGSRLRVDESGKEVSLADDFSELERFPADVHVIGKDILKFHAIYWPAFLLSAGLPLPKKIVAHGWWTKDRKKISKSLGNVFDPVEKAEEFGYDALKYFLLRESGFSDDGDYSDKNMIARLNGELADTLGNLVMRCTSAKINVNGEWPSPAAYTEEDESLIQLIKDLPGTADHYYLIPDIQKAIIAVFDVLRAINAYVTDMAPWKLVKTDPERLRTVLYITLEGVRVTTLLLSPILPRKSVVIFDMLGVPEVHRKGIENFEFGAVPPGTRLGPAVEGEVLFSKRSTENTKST

[2] = test system: Streptococcus sp. 'group A'; test: growth inhibition of control SK(-) GAS strain, dose response, counter-screen for streptokinase expression inhibitor project, luminescence, kanamycin, BacTiterGlo, confirmation (AID 1900); assay type: functional, organism-based
[3] = Counterscreen for inhibitors of Trypanosoma brucei methionyl tRNA synthetase (MetRS): Luminescence-based cell-based high throughput dose response assay to identify compounds that are cytotoxic to Jurkat human T lymphocyte cells.; assay type: functional
[4] = test system: Streptococcus; test: Group A Streptococcus viability loss, dose response, counter-screen for streptokinase expression inhibitor project, luminescence, BacTiterGlo (AID 1915); assay type: functional, organism-based;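 further: potency for reduction of bacterial viability or growth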
[5] = molecular target: T1, Methionyl-tRNA synthetase, putative; assay type: functional, Trypanosoma brucei brucei strain 927/4 GUTat10.1; remark: listed apart in the source
[6] = molecular target: T2, Streptokinase A (Streptococcus pyogenes serotype M1, UniProt P10520); test: S. pyogenes streptokinase expression inhibitors, potency, dose response, plasminogen activation absorbance, OD405 (AID 1914); assay type: functional, Streptococcus pyogenes M1 GAS;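 further: secreted streptokinase activity via plasminogen activation per viability signal from cell pellet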
T2 sequence (P10520 whole entry): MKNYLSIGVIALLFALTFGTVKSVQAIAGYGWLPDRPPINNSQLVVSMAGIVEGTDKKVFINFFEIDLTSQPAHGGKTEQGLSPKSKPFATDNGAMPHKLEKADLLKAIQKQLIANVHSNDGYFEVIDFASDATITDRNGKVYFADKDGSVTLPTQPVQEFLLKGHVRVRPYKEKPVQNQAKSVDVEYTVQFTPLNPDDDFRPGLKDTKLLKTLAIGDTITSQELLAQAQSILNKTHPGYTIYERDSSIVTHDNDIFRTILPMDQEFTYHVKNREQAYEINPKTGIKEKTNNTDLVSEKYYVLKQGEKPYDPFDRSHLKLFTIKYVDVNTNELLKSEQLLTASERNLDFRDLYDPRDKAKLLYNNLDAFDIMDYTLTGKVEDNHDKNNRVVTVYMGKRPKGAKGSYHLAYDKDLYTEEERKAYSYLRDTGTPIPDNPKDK

[7] = molecular target: Tyrosine-protein phosphatase non-receptor type 11 (Homo sapiens, UniProt Q06124); test: SHP2 phosphatase inhibition, dose response, selectivity assay for STEP inhibitor project, biochemical (AID 602367); assay type: functional; settings: read-out: IC50_Mean
[8] = molecular target: Dual specificity protein phosphatase 3 (Homo sapiens, UniProt P51452); test: VHR phosphatase inhibition, dose response, selectivity assay for STEP inhibitor project, biochemical (AID 602374); assay type: functional; settings: read-out: IC50_Mean
[9] = molecular target: T3, Carboxy-terminal domain RNA polymerase II polypeptide A small phosphatase 1 (Homo sapiens, UniProt Q9GZU7); test: inhibitors of CTDSP1, concentration-response testing, biochemical assay, absorbance-based, actives from ultra-high-throughput screening (AID 540297); assay type: functional
T3 sequence (Q9GZU7 whole entry): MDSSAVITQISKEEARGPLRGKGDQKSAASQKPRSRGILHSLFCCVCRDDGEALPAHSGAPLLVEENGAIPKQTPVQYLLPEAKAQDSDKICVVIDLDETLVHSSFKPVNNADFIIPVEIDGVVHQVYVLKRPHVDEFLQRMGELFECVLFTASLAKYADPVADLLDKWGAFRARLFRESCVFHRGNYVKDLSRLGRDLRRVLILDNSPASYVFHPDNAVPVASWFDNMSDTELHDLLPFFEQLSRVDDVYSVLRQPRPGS

[10] = molecular target: T4, Caspase-6 (Homo sapiens, UniProt P55212); test: human caspase-6 inhibitors, dose response, biochemical, VEID-R110 fluorescence, cherry-pick (AID 720632)
T4 sequence (P55212 whole entry): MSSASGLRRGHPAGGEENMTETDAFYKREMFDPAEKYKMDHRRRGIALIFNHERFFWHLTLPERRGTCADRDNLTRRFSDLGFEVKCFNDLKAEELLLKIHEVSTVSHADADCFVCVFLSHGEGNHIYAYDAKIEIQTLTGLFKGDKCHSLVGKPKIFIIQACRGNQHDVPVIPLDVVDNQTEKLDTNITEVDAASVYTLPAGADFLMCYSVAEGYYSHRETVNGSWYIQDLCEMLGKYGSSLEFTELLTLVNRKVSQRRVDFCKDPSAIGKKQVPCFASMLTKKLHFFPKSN

[11] = molecular target: Tyrosine-protein phosphatase non-receptor type 5 (Homo sapiens, UniProt P54829); test: STEP phosphatase inhibitors, confirmation, biochemical, fluorescence intensity, uHTS hits (AID 602372); assay type: functional; settings: read-out: IC50_Mean
[12] = molecular target: T5, Low molecular weight phosphotyrosine protein phosphatase (Homo sapiens, UniProt P24666); assay type: functional; settings: read-out: IC50_Mean
T5 sequence (P24666 whole entry): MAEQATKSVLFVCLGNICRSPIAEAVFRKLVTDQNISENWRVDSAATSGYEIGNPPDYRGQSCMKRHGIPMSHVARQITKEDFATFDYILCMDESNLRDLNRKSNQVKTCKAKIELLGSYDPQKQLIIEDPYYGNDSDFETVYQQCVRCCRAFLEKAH

[13] = molecular target: T5, Low molecular weight phosphotyrosine protein phosphatase; assay type: functional; settings: read-out: IC50_Mean; remark: listed apart in the source
[14] = molecular target: Photoreceptor-specific nuclear receptor (Homo sapiens, UniProt Q9Y5X4); assay type: functional, cell-based;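 further: CHO-S cells with Gal4-NCOR and VP16-NR2E3 two-hybrid luciferase reporter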
Photoreceptor-specific nuclear receptor, sequence (Q9Y5X4 whole entry, the tested form may be a part): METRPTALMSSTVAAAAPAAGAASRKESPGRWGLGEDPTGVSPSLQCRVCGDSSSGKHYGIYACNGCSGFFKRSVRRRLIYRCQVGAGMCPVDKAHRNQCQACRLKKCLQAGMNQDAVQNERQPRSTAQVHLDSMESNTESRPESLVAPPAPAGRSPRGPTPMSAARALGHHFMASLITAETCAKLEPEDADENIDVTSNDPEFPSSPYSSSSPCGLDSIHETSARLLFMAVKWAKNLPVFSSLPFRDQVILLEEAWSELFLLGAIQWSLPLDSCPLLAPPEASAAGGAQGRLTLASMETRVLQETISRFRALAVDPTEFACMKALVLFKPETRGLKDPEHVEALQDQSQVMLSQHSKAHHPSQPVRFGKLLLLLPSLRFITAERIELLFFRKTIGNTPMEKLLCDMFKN

Tyrosine-protein phosphatase non-receptor type 11, sequence (Q06124 whole entry): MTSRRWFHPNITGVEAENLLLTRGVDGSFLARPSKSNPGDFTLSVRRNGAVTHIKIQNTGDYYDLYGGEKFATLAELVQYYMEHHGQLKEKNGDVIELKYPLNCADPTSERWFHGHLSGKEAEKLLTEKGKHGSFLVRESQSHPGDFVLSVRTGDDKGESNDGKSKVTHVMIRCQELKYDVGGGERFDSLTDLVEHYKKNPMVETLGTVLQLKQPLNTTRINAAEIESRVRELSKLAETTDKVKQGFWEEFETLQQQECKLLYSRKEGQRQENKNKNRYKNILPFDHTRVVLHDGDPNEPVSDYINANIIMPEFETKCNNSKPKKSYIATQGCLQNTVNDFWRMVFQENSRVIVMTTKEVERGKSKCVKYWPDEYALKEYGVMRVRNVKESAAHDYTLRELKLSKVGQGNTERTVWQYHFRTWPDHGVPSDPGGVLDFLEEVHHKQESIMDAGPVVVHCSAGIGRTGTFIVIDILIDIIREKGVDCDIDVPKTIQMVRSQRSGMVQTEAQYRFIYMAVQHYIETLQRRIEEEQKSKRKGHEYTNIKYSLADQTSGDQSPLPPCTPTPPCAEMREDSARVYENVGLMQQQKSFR
Dual specificity protein phosphatase 3, sequence (P51452 whole entry, the tested form may be a part): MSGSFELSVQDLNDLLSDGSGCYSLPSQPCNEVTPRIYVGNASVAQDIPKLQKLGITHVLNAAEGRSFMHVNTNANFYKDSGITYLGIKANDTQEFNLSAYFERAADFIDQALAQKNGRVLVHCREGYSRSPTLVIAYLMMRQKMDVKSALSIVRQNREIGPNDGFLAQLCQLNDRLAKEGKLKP
Tyrosine-protein phosphatase non-receptor type 5, sequence (P54829 whole entry): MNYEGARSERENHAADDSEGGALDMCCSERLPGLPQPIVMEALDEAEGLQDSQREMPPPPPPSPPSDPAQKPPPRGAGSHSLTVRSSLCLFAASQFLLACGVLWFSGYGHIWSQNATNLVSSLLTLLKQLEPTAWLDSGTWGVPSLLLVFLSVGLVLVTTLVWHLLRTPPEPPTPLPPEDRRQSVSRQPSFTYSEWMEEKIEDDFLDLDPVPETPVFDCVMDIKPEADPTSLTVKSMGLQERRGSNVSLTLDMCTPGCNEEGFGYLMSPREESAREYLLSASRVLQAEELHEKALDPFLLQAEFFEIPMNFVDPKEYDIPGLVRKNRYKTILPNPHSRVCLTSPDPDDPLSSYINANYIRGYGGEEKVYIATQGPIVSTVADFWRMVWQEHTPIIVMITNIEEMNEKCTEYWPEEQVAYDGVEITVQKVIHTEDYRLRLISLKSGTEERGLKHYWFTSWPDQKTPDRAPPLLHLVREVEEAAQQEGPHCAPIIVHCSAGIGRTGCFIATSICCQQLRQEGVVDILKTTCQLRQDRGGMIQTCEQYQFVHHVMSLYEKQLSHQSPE

## COc1ccc(Cc2nnc(S)n2NC(=O)Nc2ccc(Cl)c(Cl)c2)cc1
[1]
  IC50: 17.7 µM (inactive)
[2]
  EC50: 3.39 µM (active)
[3]
  IC50: 54.2 µM (inactive)
[4]
  EC50: 63.3 µM (active)
[5]
  IC50: 76.2 µM (inactive)
[6]
  EC50: 20.3 µM (active)

## CC(=O)N1CCOc2ccc(S(=O)(=O)NCc3ccc(F)cc3)cc21
[7]
  IC50: 4.64 µM (active)
[8]
  IC50: 2.66 µM (active)
[9]
  IC50: 9.32 µM (active)
[10]
  AC50: 11.2 µM (active)
[11]
  IC50: 56.5 µM (inactive)

## O=C(CCc1ccccc1)NNC(=O)c1ccc(NC(=O)c2ccccc2)cc1
[7]
  IC50: 3.98 µM (active)
[8]
  IC50: 3.9 µM (active)
[9]
  IC50: 6.27 µM (active)
[12]
  IC50: 31.2 µM (inactive)
[11]
  IC50: 17.3 µM (active)
[13]
  IC50: 24.9 µM (inactive)

## O=C(NC(=O)N1CCN(c2cccc(Cl)c2)CC1)c1ccccc1
[14]
  IC50: 4.75 µM (active)
